Among the data in US20180148446A1, “PYRROLO [2,3-c] PYRIDINE COMPOUND, PROCESS FOR PRODUCING THE SAME, AND USE” (Takeda Pharmaceutical Company Limited, priority 2004, published 2018) are IC50 values, retold here.

pIC50: −log10 of the molar value.

T1 sequence (P19156 2-1034 limits assumed): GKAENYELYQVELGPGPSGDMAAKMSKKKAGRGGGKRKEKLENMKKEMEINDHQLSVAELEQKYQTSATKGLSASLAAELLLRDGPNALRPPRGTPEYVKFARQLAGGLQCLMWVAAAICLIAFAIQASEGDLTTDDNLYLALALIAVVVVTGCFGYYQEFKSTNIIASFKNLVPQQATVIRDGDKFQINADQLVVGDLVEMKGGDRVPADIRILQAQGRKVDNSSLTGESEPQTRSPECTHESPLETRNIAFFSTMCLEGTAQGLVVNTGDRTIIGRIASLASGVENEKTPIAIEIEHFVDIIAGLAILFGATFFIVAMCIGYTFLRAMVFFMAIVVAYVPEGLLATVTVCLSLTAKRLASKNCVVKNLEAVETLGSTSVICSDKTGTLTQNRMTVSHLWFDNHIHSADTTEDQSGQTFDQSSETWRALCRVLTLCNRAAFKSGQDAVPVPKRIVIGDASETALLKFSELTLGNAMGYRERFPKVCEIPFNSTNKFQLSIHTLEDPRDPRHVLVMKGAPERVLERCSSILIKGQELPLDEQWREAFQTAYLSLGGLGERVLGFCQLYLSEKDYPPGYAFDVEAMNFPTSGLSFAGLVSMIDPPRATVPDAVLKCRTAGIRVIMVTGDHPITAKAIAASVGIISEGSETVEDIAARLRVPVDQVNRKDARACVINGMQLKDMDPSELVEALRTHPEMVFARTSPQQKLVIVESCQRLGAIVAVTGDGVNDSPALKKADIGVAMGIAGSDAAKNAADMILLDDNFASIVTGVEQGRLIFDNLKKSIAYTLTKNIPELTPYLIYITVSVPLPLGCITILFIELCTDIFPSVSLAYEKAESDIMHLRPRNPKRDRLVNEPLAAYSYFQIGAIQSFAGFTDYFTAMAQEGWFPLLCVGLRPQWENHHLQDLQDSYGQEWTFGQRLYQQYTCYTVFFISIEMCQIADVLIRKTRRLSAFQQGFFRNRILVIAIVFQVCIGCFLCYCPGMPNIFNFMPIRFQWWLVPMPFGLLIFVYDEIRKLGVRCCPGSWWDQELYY
T1 sequence (P18434 whole entry partner): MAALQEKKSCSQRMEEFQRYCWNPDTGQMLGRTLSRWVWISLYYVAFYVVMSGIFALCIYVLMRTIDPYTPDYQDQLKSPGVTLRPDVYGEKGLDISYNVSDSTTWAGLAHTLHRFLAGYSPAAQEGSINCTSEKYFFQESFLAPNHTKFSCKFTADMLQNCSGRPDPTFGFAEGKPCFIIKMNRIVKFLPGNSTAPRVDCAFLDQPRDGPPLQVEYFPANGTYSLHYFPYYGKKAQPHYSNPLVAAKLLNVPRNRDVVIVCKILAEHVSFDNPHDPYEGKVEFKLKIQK

The assay concerns the target T1, H^+/K^+-ATPase (Sus scrofa, UniProt P19156).
T1 construct: The obtained microsome fraction was used as the H^+/K^+-ATPase standard product; from tissue; host or cells: pig stomach (corpus ventriculi) mucous membrane microsome fraction
As to the kind of experiment: Proton, potassium-adenosine triphosphatase (H+/K+-ATPase) inhibitory activity test. In kind it is biochemical. Particulars: pig stomach mucous membrane microsome fraction; pH 6.5, 37° C.; malachite green colorimetry at 610 nm; read-out: IC50 (50% inhibitory concentration of proton and potassium-adenosine triphosphatase). How it is done: Proton, Potassium-Adenosine Triphosphatase (H^+/K^+-ATPase) Inhibitory Activity Test
According to the method of Wallmark et al. [Biochem. Biophys. Acta., 728, 31 (1983)], a stomach mucous membrane microsome fraction was prepared from the stomach of a pig. First, the corpus ventriculi was isolated, washed with tap water, immersed in 3M brine, and the surface of the mucous membrane was wiped with a paper towel. The stomach mucous membrane was separated, chopped, and homogenized using polytron (Kinematica) in 0.25 M saccharose solution (pH 6.8) containing 1 mM EDTA and 10 mM tris hydrochloric acid. The obtained homogenate was centrifuged at 20,000×g for 30 min, and the supernatant was centrifuged at 100,000×g for 90 min. After suspending the precipitated part in a 0.25 M saccharose solution, layered on a 0.25 M saccharose solution containing 7.5% Ficoll, and centrifuged at 100,000×g for 5 hr. The fraction of the interface between the both layers was collected and washed by centrifugation with a 0.25 M saccharose solution.
The obtained microsome fraction was used as the H^+/K^+-ATPase standard product.
A test compound (5 μL) dissolved in a 10% aqueous dimethyl sulfoxide solution was added to 40 μL of a 50 mM Hepes-tris buffer (5 mM magnesium chloride, 10 mM potassium chloride, 10 μM valinomycin, pH=6.5) containing 2.5 μg/mL (based on the protein concentration) of an enzyme standard product, and the mixture was incubated at 37° C. for 30 min. The enzyme reaction was started by the addition of 5 μL of a 2 mM adenosine triphosphate tris salt solution (50 mM Hepes-tris buffer (5 mM magnesium chloride, pH 6.5)). The enzyme reaction was carried out at 37° C. for 20 min, and quenched by adding 15 μL of malachite green solution (a mixture of 0.12% malachite green sulfuric acid (5N) solution, 7.5% ammonium molybdate and 11% Tween 20 at a ratio of 100:25:2). The mixture was stood at room temperature for 15 min, and the resulting reaction product of inorganic phosphorus and malachite green was colorimetrically determined at a wavelength of 610 nm. The amount of inorganic phosphoric acid in a reaction solution free of potassium chloride was measured in the same manner. The H^+/K^+-ATPase activity was measured by subtracting the obtained amount from the amount of inorganic phosphoric acid in the presence of potassium chloride. The inhibitory rate (%) was determined from the control activity value and the activity value at each concentration of the test compound, and 50% inhibitory concentration (IC50) of proton and potassium-adenosine triphosphatase was determined.
For the compound `Cc1[nH]c2c(NC3CCc4ccccc43)nccc2c1C` (centres unmarked) [Example 16, N-(2,3-dihydro-1H-inden-1-yl)-2,3-dimethyl-1H-pyrrolo[2,3-c]pyridine-7-amine], the pIC50 was 8.01. As for `Cc1cc2ccnc(NCc3ccccc3)c2n1CC1CC1` [Example 5, N-benzyl-1-(cyclopropylmethyl)-2-methyl-1H-pyrrolo[2,3-c]pyridine-7-amine], the pIC50 was 5.92. On to `CCCn1c(C)cc2ccnc(NCc3ccccc3)c21` [Example 2, N-benzyl-2-methyl-1-propyl-1H-pyrrolo[2,3-c]pyridine-7-amine], for which the pIC50 was 6.01. Consider `Cc1[nH]c2c(NCc3ccccc3)nccc2c1C` [Example 12, N-benzyl-2,3-dimethyl-1H-pyrrolo[2,3-c]pyridine-7-amine], for which the pIC50 was 7.57. In the case of `Cc1cccc(C)c1CNc1nccc2c(C)c(C)[nH]c12` [Example 14, N-(2,6-dimethylbenzyl)-2,3-dimethyl-1H-pyrrolo[2,3-c]pyridine-7-amine], the pIC50 is 7.85.

`Cc1cc(F)ccc1CNc1nccc2c(CO)c(C)n(CC(C)C)c12` [Example 65, {7-[(4-fluoro-2-methylbenzyl)amino]-1-isobutyl-2-methyl-1H-pyrrolo[2,3-c]pyridin-3-yl}methanol]: the pIC50 is 8.49. The figure for `Cc1[nH]c2c(NC(=O)c3ccccc3)nccc2c1C` [Example 74, N-[7-(2,3-dimethyl-1H-pyrrolo[2,3-c]pyridyl)]benzamide] is 5.74; for `CCCn1c(C)c(C)c2ccnc(NCc3ccc(F)cc3C)c21` [Example 26, N-(4-fluoro-2-methylbenzyl)-2,3-dimethyl-1-propyl-1H-pyrrolo[2,3-c]pyridine-7-amine] it is 7.62.
